Reference: US11236120B2, “Azithromycin derivatives with epithelial barrier enhancement properties” (EpiEndo Pharmaceuticals ehf, priority 2015, dated 2022)
In brackets after ≈: the same amount, converted by molar mass.

Assays:
[1] = Stability in human plasma; assay type: in vitro ADME; conditions: room temperature
Description: (§1) Stability in Mouse and Human Plasma
(§2) The stability of the compounds in mouse and human plasma was performed using protein precipitation as sample clean-up and HPLC-MS detection. The plasma stability studies of the compounds was performed at room temperature for up to 4 hours. A stock solution of […] in DMSO was prepared for each compound. For the plasma stability samples, 100 μL of the stock solution was diluted with 3.9 mL of either mouse or human plasma to a final concentration of […]. The plasma was left to equilibrate for 10 minutes at room temperature before the first analysis. For each analyzed time point ([…]) a 100 μL aliquot of the plasma was removed and protein precipitation (PPT) was performed on the aliquot by adding 900 μL of (ACN:DMSO) 95:5. The precipitated sample was shaken for 60 seconds and then centrifuged. The supernatant was transferred to an HPLC vial and analyzed using HPLC-MS. The chromatographic signal area of the samples at the different time points were then compared against each other, by setting the initial analysis at t=0 min as 100% and then calculating the %-value for each subsequent time point.
(§3) The chromatographic separation was performed on a Waters HPLC-MS system using a 50×2.1 mm×Bridge C18 column and a gradient elution of Water with 0.1% formic acid and acetonitrile with 0.1% formic acid. The analytes were analyzed in positive electro-spray mode using the (M+H)^+ in single ion recording.

[2] = Solubility in 10 mM phosphate buffer (pH 7.4); assay type: physicochemical; conditions: pH 7.4, aqueous buffer, kinetic from dmso stock, 60 minutes at room temperature, filtered, read-out: MTS Solubility in Buffer (pH 7.4)
Description: Solubility in 10 mM Phosphate Buffer (pH 7.4)
The solubility sample testing of the compounds was performed by in phosphate buffer at pH 7.4 and using HPLC-MS detection. A stock solution of […] in DMSO was prepared for each compound. For the solubility test sample, 100 μL of the stock solution was diluted with 3.9 mL of a 10 mM phosphate buffer at […] to a final concentration of […]. The buffer solution was left to stand for 60 minutes at room temperature and then filtered. The filtrate was analyzed against two calibration points of the same analyte prepared at […] using HPLC-MS. These calibration points were prepared from the same stock solution as the solubility sample by diluting it with DMSO:H2O (1:1) 1:40 and then again 1:10. The chromatographic signal area of the analyte in the solubility sample was then compared to the chromatographic signal area of the two calibration samples.
as §3

[3] = Stability in mouse plasma; assay type: in vitro ADME; conditions: room temperature
Description: as §1, §2, §3

Degradation in Human Plasma at RT [1]	solubility at 60 min [2] [µM]	Degradation in Mouse Plasma at RT [3]	SMILES
2 % per hour	0.77 (≈ 0.535 µg/mL)	Stable	CC[C@H]1OC(=O)[C@H](C)[C@@H](O)[C@H](C)[C@@H](O[C@@H]2O[C@H](C)C[C@H](N(C)C(=O)Cc3ccccc3)[C@H]2O)[C@](C)(O)C[C@@H](C)CN(C)[C@H](C)[C@@H](O)[C@]1(C)O [Example 29, N-[(2S,3R,4S,6R)-2-[[(2R,3S,4R,5R,8R,10R,11R,12S,13S,14R)-2-ethyl-3,4,10,13-tetrahydroxy-3,5,6,8,10,12,14-heptamethyl-15-oxo-1-oxa-6-azacyclopentadec-11-yl]oxy]-3-hydroxy-6-methyl-tetrahydropyran-4-yl]-N-methyl-2-phenyl-acetamide]
Stable	0.3 (≈ 0.217 µg/mL)	4 % per hour	CC[C@H]1OC(=O)[C@H](C)[C@@H](O)[C@H](C)[C@@H](O[C@@H]2O[C@H](C)C[C@H](N(C)C(=O)COCc3ccccc3)[C@H]2O)[C@](C)(O)C[C@@H](C)CN(C)[C@H](C)[C@@H](O)[C@]1(C)O [Example 26, 2-benzyloxy-N-[(2S,3R,4S,6R)-2-[[(2R,3S,4R,5R,8R,10R,11R,12S,13S,14R)-2-ethyl-3,4,10,13-tetrahydroxy-3,5,6,8,10,12,14-heptamethyl-15-oxo-1-oxa-6-azacyclopentadec-11-yl]oxy]-3-hydroxy-6-methyl-tetrahydropyran-4-yl]-N-methyl-acetamide]
Stable	2.4 (≈ 1.79 µg/mL)	Stable	CC[C@H]1OC(=O)[C@H](C)[C@@H](O)[C@H](C)[C@@H](O[C@@H]2O[C@H](C)C[C@H](N(C)C)[C@H]2OC(=O)c2ccc3ccccc3c2)[C@](C)(O)C[C@@H](C)CN(C)[C@H](C)[C@@H](O)[C@]1(C)O [Example 24, [(2S,3R,4S,6R)-4-(dimethylamino)-2-[[(2R,3S,4R,5R,8R,10R,11R,12S,13S,14R)-2-ethyl-3,4,10,13-tetrahydroxy-3,5,6,8,10,12,14-heptamethyl-15-oxo-1-oxa-6-azacyclopentadec-11-yl]oxy]-6-methyl-tetrahydropyran-3-yl]naphthalene-2-carboxylate]
Stable	1.42 (≈ 1.03 µg/mL)	Stable	CC[C@H]1OC(=O)[C@H](C)[C@@H](O)[C@H](C)[C@@H](O[C@@H]2O[C@H](C)C[C@H](N(C)C(=O)CCOc3ccccc3)[C@H]2O)[C@](C)(O)C[C@@H](C)CN(C)[C@H](C)[C@@H](O)[C@]1(C)O [Example 28, N-[(2S,3R,4S,6R)-2-[[(2R,3S,4R,5R,8R,10R,11R,12S,13S,14R)-2-ethyl-3,4,10,13-tetrahydroxy-3,5,6,8,10,12,14-heptamethyl-15-oxo-1-oxa-6-azacyclopentadec-11-yl]oxy]-3-hydroxy-6-methyl-tetrahydropyran-4-yl]-N-methyl-3-phenoxy-propanamide]
Stable	0.49 (≈ 0.283 µg/mL)	Stable	CC[C@H]1OC(=O)[C@H](C)[C@@H](O)[C@H](C)[C@@H](O[C@@H]2O[C@H](C)C[C@H](NC)[C@H]2O)[C@](C)(O)C[C@@H](C)CN(C)[C@H](C)[C@@H](O)[C@]1(C)O [Example 30, (2R,3S,4R,5R,8R,10R,11R,12S,13S,14R)-2-ethyl-3,4,10,13-tetrahydroxy-11-[(2S,3R,4S,6R)-3-hydroxy-6-methyl-4-(methylamino)tetrahydropyran-2-yl]oxy-3,5,6,8,10,12,14-heptamethyl-1-oxa-6-azacyclopentadecan-15-one]
Stable	0.3 (≈ 0.23 µg/mL)	3 % per hour	CC[C@H]1OC(=O)[C@H](C)[C@@H](O)[C@H](C)[C@@H](O[C@@H]2O[C@H](C)C[C@H](N(C)C(=O)CNC(=O)OCc3ccccc3)[C@H]2O)[C@](C)(O)C[C@@H](C)CN(C)[C@H](C)[C@@H](O)[C@]1(C)O [Example 27, Benzyl N-[2-[[(2S,3R,4S,6R)-2-[[(2R,3S,4R,5R,8R,10R,11R,12S,13S,14R)-2-ethyl-3,4,10,13-tetrahydroxy-3,5,6,8,10,12,14-heptamethyl-15-oxo-1-oxa-6-azacyclopentadec-11-yl]oxy]-3-hydroxy-6-methyl-tetrahydropyran-4-yl]-methyl-amino]-2-oxo-ethyl]carbamate]

Continued, compound first:

SMILES	Degradation in Human Plasma at RT [1]	solubility at 60 min [2] [µM]	Degradation in Mouse Plasma at RT [3]
CC[C@H]1OC(=O)[C@H](C)[C@@H](O)[C@H](C)[C@@H](O[C@@H]2O[C@H](C)C[C@H](N(C)C(=O)c3ccccc3)[C@H]2O)[C@](C)(O)C[C@@H](C)CN(C)[C@H](C)[C@@H](O)[C@]1(C)O [Example 7, N-[(2S,3R,4S,6R)-2-[[(2R,3S,4R,5R,8R,10R,11R,12S,13S,14R)-2-ethyl-3,4,10,13-tetrahydroxy-3,5,6,8,10,12,14-heptamethyl-15-oxo-1-oxa-6-azacyclopentadec-11-yl]oxy]-3-hydroxy-6-methyl-tetrahydropyran-4-yl]-N-methyl-benzamide]	Stable	0.23 (≈ 0.157 µg/mL)	–
CCc1ccc(C(=O)O[C@H]2[C@H](O[C@@H]3[C@@H](C)[C@H](O)[C@@H](C)C(=O)O[C@H](CC)[C@@](C)(O)[C@H](O)[C@@H](C)N(C)C[C@H](C)C[C@@]3(C)O)O[C@H](C)C[C@@H]2N(C)C)cc1 [Example 22, [(2S,3R,4S,6R)-4-(dimethylamino)-2-[[(2R,3S,4R,5R,8R,10R,11R,12S,13S,14R)-2-ethyl-3,4,10,13-tetrahydroxy-3,5,6,8,10,12,14-heptamethyl-15-oxo-1-oxa-6-azacyclopentadec-11-yl]oxy]-6-methyl-tetrahydropyran-3-yl]4-ethylbenzoate]	Stable	1.43 (≈ 1.03 µg/mL)	Stable
CC[C@H]1OC(=O)[C@H](C)[C@@H](O)[C@H](C)[C@@H](O[C@@H]2O[C@H](C)C[C@H](N(C)C)[C@H]2OC(=O)c2ccc(-c3ccc(S(C)(=O)=O)cc3)cc2)[C@](C)(O)C[C@@H](C)CN(C)[C@H](C)[C@@H](O)[C@]1(C)O [Example 12, [(2S,3R,4S,6R)-4-(dimethylamino)-2-[[(2R,3S,4R,5R,8R,10R,11R,12S,13S,14R)-2-ethyl-3,4,10,13-tetrahydroxy-3,5,6,8,10,12,14-heptamethyl-15-oxo-1-oxa-6-azacyclopentadec-11-yl]oxy]-6-methyl-tetrahydropyran-3-yl]4-(4-methylsulfonylphenyl) benzoate]	2 % per hour	0.3 (≈ 0.255 µg/mL)	2 % per hour
CC[C@H]1OC(=O)[C@H](C)[C@@H](O)[C@H](C)[C@@H](O[C@@H]2O[C@H](C)C[C@H](N(C)C)[C@H]2OC(=O)CCC(=O)O)[C@](C)(O)C[C@@H](C)CN(C)[C@H](C)[C@@H](O)[C@]1(C)O [Example 17, 4-[(2S,3R,4S,6R)-4-(dimethylamino)-2-[[(2R,3S,4R,5R,8R,10R,11R,12S,13S,14R)-2-ethyl-3,4,10,13-tetrahydroxy-3,5,6,8,10,12,14-heptamethyl-15-oxo-1-oxa-6-azacyclopentadec-11-yl]oxy]-6-methyl-tetrahydropyran-3-yl]oxy-4-oxo-butanoic acid]	20 % per hour	0.66 (≈ 0.456 µg/mL)	ca. 20% per hour
CC[C@H]1OC(=O)[C@H](C)[C@@H](O)[C@H](C)[C@@H](O[C@@H]2O[C@H](C)C[C@H](N(C)C(=O)CCC(=O)O)[C@H]2O)[C@](C)(O)C[C@@H](C)CN(C)[C@H](C)[C@@H](O)[C@]1(C)O [Example 18, 4-[[(2S,3R,4S,6R)-2-[[(2R,3S,4R,5R,8R,10R,11R,12S,13S,14R)-2-ethyl-3,4,10,13-tetrahydroxy-3,5,6,8,10,12,14-heptamethyl-15-oxo-1-oxa-6-azacyclopentadec-11-yl]oxy]-3-hydroxy-6-methyl-tetrahydropyran-4-yl]-methyl-amino]-4-oxo-butanoic acid]	Stable	0.4 (≈ 0.271 µg/mL)	–
